Measurements: patent publication US20100279327A1, “METHOD OF TREATING DISEASES WITH PARP INHIBITORS” (BiPar Sciences, Inc., priority 2006, published 2010)

Test system: PARP1 (poly (ADP-ribose) polymerase family, member 1)
Assay: PARP1 mRNA expression, Affymetrix human genome GeneChip (probe set 208644_at), Diff/X and e-Northern
Conditions: Normal; for PARP1 expression, Experiment Mean: patients taking the medication, signal intensity of 208644_at; for PARP1 Fold change (FC): patients taking vs patients not taking the medication
Text: GeneChip arrays have been widely used for monitoring mRNA expression in many areas of biomedical research. The high-density oligonucleotide array technology allows researchers to monitor tens of thousands of genes in a single hybridization experiment as they are expressed differently in tissues and cells. The expression profile of a mRNA molecule of a gene is obtained by the combined intensity information from probes in a probe set, which consists of 11-20 probe pairs of oligonucleotides of 25 by in length, interrogating a different part of the sequence of a gene.
The gene expressions were assessed using the Affymetrix human genome genechips (45,000 gene transcripts covering 28,473 UniGene clusters). Approximately 5 μg total RNA from each sample were labeled using high yield transcript labeling kit and labeled RNAs were hybridized, washed, and scanned according to manufacturer's specifications (Affymetrix, Inc., Santa Clara, Calif.). Affymetrix Microarray Suite 5.0 software (MASS) was used to estimate transcript signal levels from scanned images (Affymetrix). The signals on each array were normalized to a trimmed mean value of 500, excluding lowest 2% and highest 2% of the signals. An Affymetrix probe set representing a unique Genbank sequence is referred as a probe or gene hereafter for convenience. To verify any errors in the expressions caused by image defects, the correlation coefficient of each array to an idealized distribution was determined where the idealized distribution is mean of all arrays. The genes are filtered from the remaining arrays using detection P value reported by MASS. The genes having P>0.065 in 95% of the arrays are eliminated and all other signals are included for statistical comparisons of classes.
The PARP1 gene is represented on the HG-U133A array by a single probe set with the identifier W208644_at”. All results in this report were generated based on the MASS expression signal intensities for this probe set and will be referred to as “PARP1”.
The PARP1 gene is represented on the HG-U133A array by a single probe set with the identifier “208644_at”. All results in this report were generated based on the MASS expression signal intensities for this probe set and will be referred to as “PARP1”. In addition, the seven genes, BRCA1, BRCA2, RAD51, MRE11, p53, PARP2 and MUCIN 16, are represented on the HG-U133A/B array set by 11 informative probe sets. Three probe sets were excluded from this analysis because they were considered to be non-responsive on the array.
RNA is evaluated for quality and integrity (via Agilent Bioanalyzer derived […] ratio and RNA integrity number (RIN)), purity (via absorbance ratio at A260/A280), and quantity (via absorbance at A260 or alternative assay (i.e. ribogreen)), Quantity and purity of cRNA synthesis product is assessed using UV absorbance. Quality of cRNA synthesis is assessed using either the Agilent Bioanalyzer or a MOPS agarose gel. Array quality is evaluated using a proprietary high throughput application by which arrays are evaluated against several strict objective standards such as 5′/3′ GAPDH ratio, signal/noise ratio. and background as well as over thirty additional metrics (e.g. outlier, vertical variance). Data generated throughout the process is managed within the quality system to ensure data integrity of the data.
23, 122, and 57 pathologically normal tissue samples were used to determine baseline expression of the PARP1 gene in endometroid, lung, and prostate tissue, respectively. The mean and 90%, 95%, 99%, and 99.9% upper confidence limits for an individual predicted value (UCLs) were calculated. Because we are assessing the likelihood that individual samples external to the normal set are within the baseline distribution, the prediction interval, rather than the confidence interval for the mean, was selected to estimate the expected range for future individual measurements. […]

[1] = Superior Temporal Gyrus (Brodmann Area 22)
[2] = Stomach, positive = up-regulated, negative = down-regulated

Row | Molecule | PARP1 expression, Experiment Mean (Stomach) | PARP1 Fold change (FC) [2] | further results
1 | CC(=O)Nc1ccc(O)cc1 [Acetaminophen] |  |  | PARP1 expression, Experiment Mean [1]: 290.49; PARP1 Fold change (FC) [1]: 1.28
2 | CC(C)NCC(O)COc1ccc(CC(N)=O)cc1 (centres unmarked) [Atenolol] |  |  | PARP1 expression, Experiment Mean (Ovary): 138.57; PARP1 Fold change (FC) (Ovary, negative = down-regulated): −1.22
3 | CC(C)c1c(C(=O)Nc2ccccc2)c(-c2ccccc2)c(-c2ccc(F)cc2)n1CC[C@@H](O)C[C@@H](O)CC(=O)O [Atorvastatin] | 176.85 | −1.24 | 
4 | Estrogens | 228.75 | 1.27 | 
